Data published in patent US7491819B1 (priority 2004, dated 2009).
Read-outs that look alike come from different tables or passages of the source.

Assays:
MT-2 cells = experiment: Cytotoxicity assay of the drug combinations, uninfected cells, MTS; type: cell-based; conditions: highest concentrations tested, five days
Experimental: (§1) Drug Susceptibility and Cytotoxicity Assays. For drug susceptibility assays, MT-2 cells were infected with HIV-1 303B (or NL36G), at an MOI of 0.001, and seeded into 96-well microtiter plates (2.5×10^5 cells/ml) containing serial dilutions of test compounds. […] Each drug ratio consisted of an array of 3-fold serial dilutions, and was performed with eight or more replicas on separate multi-well plates. HIV infected cells were incubated at 37° C. in 5% CO2, and on day five post-infection, the extent of virus replication was measured by determining cell viability using the CellTiter 96 Aqueous Non-Radioactive Cell Proliferation Assay (Promega). Maximal cell protection was typically seen in samples treated with the highest drug concentration. In the cell viability assay, the tetrazolium compound MTS (3-(4,5-dimethylthiazol-2-yl)-5-(3-carboxymethoxyphenyl)-2-4-sulphophenyl-2H-tetrazolium) is added to cells, whereby enzymes in metabolically active cells convert it into a colored formazan product, which is quantitated by reading absorbance at 490 nm. Cytotoxicity assays were performed in parallel with the combination experiments. Here, uninfected cells were exposed to the same drug combinations, and assayed after five days for cell viability using the MTS assay.

NL36G virus = test system: NL36G virus
Experimental: Virus and cell lines. The T-cell line, MT-2, was obtained through the AIDS Research and Reference Reagent Program. MT-2 cells were sub-cultured twice a week in RPMI 1640 medium supplemented with 10% fetal bovine serum, 2 mM L-glutamine, and 10 mM HEPES buffer pH 7.5. The HIV-1303B virus is a molecular clone derived from the NL4-3 strain of HIV-1 that was obtained from the NIH AIDS Research and Reference Reagent Program. For combinations with enfuvirtide, the NL36G virus was used. […] Virus stocks were made by transfecting 293T cells with a proviral DNA clone using LipofectAMINE PLUS (Invitrogen), according to the manufacturer's instructions. Three days post-transfection, virus was harvested and passaged once in MT-2 cells before titration in MT-2 cells.
Chemicals. Example 19, atazanavir, didanosine, stavudine, efavirenz, and enfuvirtide (T-20) were synthesized by Bristol-Myers Squibb using published or known reactions. […] Tenofovir was tested as tenofovir disopoxil fumarate. Zidovudine and zalcitabine were purchased from Sigma, and emtricitabine from Moravek Biochemicals.
as §1, with “Maximal cell protection was typically seen in samples treated with the highest drug concentration. In the cell viability assay, the tetrazolium compound MTS (3-(4,5-dimethylthiazol-2-yl)-5-(3-carboxymethoxyphenyl)-2-4-sulphophenyl-2H-tetrazolium) is added to cells, whereby enzymes in metabolically active cells convert it into a colored formazan product, which is quantitated by reading absorbance at 490 nm.” left out
Analysis of Drug Combination Effects. For determination of combination index (CI) values, drugs were diluted in a fixed ratio and multiple ratios were analyzed. The drug serial dilutions spanned a range of concentrations near the EC50 value of each compound, so that equivalent antiviral activities could be compared. The normalized responses from each therapy are fit to the four-parameter logistic model with a common minimum and maximum across all therapies. Conceptually, this equation can be written as
In this equation, Fa stands for “fraction affected,” and represents the fraction of the viral load that has been inactivated. […] The EC50, represented by the Ci in the above equation, is the drug concentration that is expected to reduce the amount of virus by 50%, and the Bi are the parameters that reflects the slope of the concentration-response curve. For this assay, A is the bottom plateau common to all curves, D is the common top plateau, Bj is the “slope” parameter for the jth therapy, and Cj is the concentration that produces an effect equal to the average of A and D for the jth therapy. Therapies 1 and 2 correspond to mono therapies 1 and 2, respectively. Therapies 3, 4, and 5 correspond to the three combination therapies. EC50 values for each drug were determined from the single drug experiments, using the above equation. The equation was fit using a nonlinear regression routine (Proc Nlin) in PC SAS version 8.2 (SAS Institute Inc.).
To assess antiviral effects of different drug combination treatments, combination indices (CIs) were calculated according to Chou and Rideout. The combination index was computed as
In this equation [Dm]1 and [Dm]2 are the concentrations of drugs that would individually produce a specific level of effect, while [D]1 and [D]2 are the concentrations of drugs in combination that would produce the same level of effect.
Theoretically, additivity is implied if the CI is equal to one, synergy if the CI is less than one, and antagonism if the CI is greater than one.

[1] = in combination with Example 19, EC50 ratio 1:1 (molar 5:44)
[2] = in combination with Example 19, EC50 ratio 1:2.5 (molar 1:22)
[3] = in combination with Example 19, EC50 ratio 2.5:1 (molar 25:88)

enfuvirtide
cytotoxicity of the drug combinations with Example 19 (MT-2 cells): No significant cytotoxicity
overall antiviral effect of the two-drug combination with Example 19 (in words) (NL36G virus; classification from combination indices): synergistic
Combination Indices at 50% HIV Inhibition (Confidence Interval) (NL36G virus; [1]): 0.68 (0.59, 0.77)
Combination Indices at 75% HIV Inhibition (Confidence Interval) (NL36G virus; [1]): 0.59 (0.48, 0.70)
Combination Indices at 90% HIV Inhibition (Confidence Interval) (NL36G virus; [1]): 0.52 (0.37, 0.67)
Combination Indices at 50% HIV Inhibition (Confidence Interval) (NL36G virus; [2]): 0.75 (0.65, 0.85)
Combination Indices at 75% HIV Inhibition (Confidence Interval) (NL36G virus; [2]): 0.60 (0.49, 0.70)
Combination Indices at 90% HIV Inhibition (Confidence Interval) (NL36G virus; [2]): 0.48 (0.34, 0.61)
Combination Indices at 50% HIV Inhibition (Confidence Interval) (NL36G virus; [3]): 0.76 (0.65, 0.86)
Combination Indices at 75% HIV Inhibition (Confidence Interval) (NL36G virus; [3]): 0.73 (0.59, 0.86)
Combination Indices at 90% HIV Inhibition (Confidence Interval) (NL36G virus; [3]): 0.71 (0.50, 0.92)
EC50 (NL36G virus; single drug, MT-2 cells, MOI 0.001, day five, MTS cell viability): 61 nM
